Test results as given in ChEMBL document CHEMBL2331293, “Attenuating Staphylococcus aureus virulence gene regulation: a medicinal chemistry perspective” (J Med Chem, 2013).
Positions of bridges follow the written chain, without caps; N, C: chain ends. Non-standard residues stand in square brackets, D forms with d. Residues, ends and D or L forms follow the SMILES beside them. *: point of attachment. X2 = O=C(c1ccccc1)c1ccc(OCCCC(=O)*)cc1; X1 = O=C(CCCOc1ccc(Cc2ccccc2)cc1)*; NMeF = CN[C@@H](Cc1ccccc1)C(=O)O; NMeL = CN[C@@H](CC(C)C)C(=O)O; NMeS = CN[C@@H](CO)C(=O)O; Abu = CC[C@H](N)C(=O)O; Dap = NC[C@H](N)C(=O)O; Ava = NCCCCC(=O)O; Mpa = O=C(O)CCS

Experiments:
[1] = Inhibition of Staphylococcus aureus AgrC3
[2] = Inhibition of Staphylococcus aureus AgrC1
[3] = Inhibition of Staphylococcus aureus AgrC4
[4] = Inhibition of Staphylococcus aureus AgrC2
[5] = Inhibition of Staphylococcus aureus AgrC1-mediated RNA3 promoter activation
[6] = system: Staphylococcus aureus; test: Inhibition of Staphylococcus aureus AgrC1-mediated RNA3 promoter activation at 12 uM
[7] = Activation of Staphylococcus aureus AgrC4
[8] = Activation of Staphylococcus aureus AgrC1

Row | Structure (SMILES) | IC50 [1] | IC50 [2] | IC50 [4] | also measured
1 | COc1ccc(NC(=O)C(c2cc3c(cc2[N+](=O)[O-])OCO3)N2CC(C)CC(C)C2)cc1 (stereo not given) | 1310 nM | – | – | –
2 | CC(C)c1ccc(S(=O)(=O)c2nnn3c2nc(O)c2ccccc23)cc1 [SAVIRIN] | – | < 1000 nM | – | –
3 | CC[C@H](C)[C@@H]1NC(=O)[C@H](Cc2ccccc2)NC(=O)[C@H](Cc2ccc(O)cc2)NC(=O)[C@@H](NC(C)=O)CSC(=O)[C@H](CCSC)NC1=O (Ac-CYFIM; thioester 1-C) | 10 nM | 930 nM | 8 nM | IC50 [3]: 4100 nM
4 | CC(C)C[C@@H]1NC(=O)[C@H](CO)NC(=O)[C@H](CO)NC(=O)CCSC(=O)[C@H](Cc2ccccc2)N(C)C1=O ([Mpa]SSL[NMeF]; thioester 1-C) | – | 1680 nM | 47300 nM | –
5 | CC[C@H](C)[C@@H]1NC(=O)[C@H](Cc2ccccc2)NC(=O)[C@H](C)NC(=O)[C@@H](NC(=O)[C@@H](NC(=O)[C@H](CO)NC(=O)[C@@H](N)Cc2ccc(O)cc2)[C@@H](C)O)CSC(=O)[C@H](CCSC)NC1=O (H-YSTCAFIM; thioester 4-C) | 0.3 nM | 5 nM | 8 nM | IC50 [3]: 3 nM
6 | CC(=O)N[C@H]1CSC(=O)[C@H](Cc2ccccc2)NC(=O)[C@H](CC(C)C)N(C)C(=O)[C@H](CO)NC(=O)[C@H](CO)NC1=O (Ac-CSS[NMeL]F; thioester 1-C) | – | > 30000 nM | > 30000 nM | –
7 | CCc1oc2ccccc2c1C(=O)c1ccc(O)cc1 [BENZARONE] | – | 1290 nM | – | –
8 | CC1CCN(C(C(=O)Nc2ccc(C(C)C)cc2)c2ccc3c(c2)OCO3)CC1 (stereo not given) | 720 nM | – | – | –
9 | O=C(Nc1ccc2c(c1)OCO2)C(c1ccccc1)N1CCCCC1 (stereo not given) | 1260 nM | – | – | –
10 | CC(=O)N[C@H]1CSC(=O)[C@H](Cc2ccccc2)N(C)C(=O)[C@H](CC(C)C)NC(=O)[C@H](CO)NC(=O)[C@H](CO)NC1=O (Ac-CSSL[NMeF]; thioester 1-C) | – | > 30000 nM | > 30000 nM | –
11 | CC[C@@H]1NC(=O)[C@@H](NC(=O)[C@@H](NC(=O)[C@H](CO)NC(=O)[C@@H](N)Cc2ccc(O)cc2)[C@@H](C)O)CSC(=O)[C@H](CCSC)NC(=O)[C@H]([C@@H](C)CC)NC(=O)[C@H](Cc2ccccc2)NC1=O (H-YSTC[Abu]FIM; thioester 4-C) | – | 137 nM | 2.8 nM | –
12 | CC(=O)N[C@H]1CSC(=O)[C@H](Cc2ccccc2)NC(=O)[C@H](CC(C)C)NC(=O)[C@H](CO)N(C)C(=O)[C@H](CO)NC1=O (Ac-CS[NMeS]LF; thioester 1-C) | – | 319 nM | 1050 nM | –
13 | CC(=O)N[C@H]1CNC(=O)[C@H](Cc2ccccc2)NC(=O)[C@H](CC(C)C)NC(=O)[C@H](CO)NC(=O)[C@H](CO)NC1=O (Ac-[Dap]SSLF; lactam 1-C) | – | 1390 nM | 167000 nM | –
14 | CC1CCCN(C(C(=O)Nc2ccc3c(c2)OCCO3)c2ccccc2)C1 (stereo not given) | 130 nM | – | – | IC50 [5]: 100 nM; inhibition [6]: > 90%
15 | CC(C)c1ccc(NC(=O)C(c2ccc3c(c2)OCO3)N2CCCCC2)cc1 (stereo not given) | 250 nM | – | – | –
16 | O=C(Nc1ccc2c(c1)OCO2)C(c1ccccc1)N1CCC(Cc2ccccc2)CC1 (stereo not given) | 980 nM | – | – | –
17 | CC[C@H](C)[C@@H]1NC(=O)[C@H](Cc2ccccc2)NC(=O)[C@H](CC(=O)O)NC(=O)[C@@H](NC(=O)[C@@H](NC(=O)[C@H](CO)NC(=O)[C@@H](N)Cc2ccc(O)cc2)[C@@H](C)O)CSC(=O)[C@H](CCSC)NC1=O (H-YSTCDFIM; thioester 4-C) | 3 nM | – | 25 nM | EC50 [7]: 26000 nM; EC50 [8]: 28 nM

Row | Structure (SMILES) | IC50 [1] | IC50 [2] | IC50 [4] | also measured
18 | CC(=O)N[C@H]1CSC(=O)[C@H](Cc2ccccc2)NC(=O)[C@H](CC(C)C)NC(=O)[C@H](CO)NC(=O)[C@H](CO)N(C)C1=O (Ac-C[NMeS]SLF; thioester 1-C) | – | 639 nM | 7880 nM | –
19 | CC(=O)N[C@H]1CSC(=O)[C@H](Cc2ccccc2)NC(=O)[C@H](CC(C)C)NC(=O)CNC(=O)CNC1=O (Ac-CGGLF; thioester 1-C) | – | 77 nM | 238 nM | –
20 | CC1CCCN(C(C(=O)Nc2ccc3c(c2)OCO3)c2ccccc2)C1 (stereo not given) | 160 nM | – | – | –
21 | CC(=O)N[C@H]1CSC(=O)[C@H](Cc2ccccc2)NC(=O)[C@H](CC(C)C)NC(=O)[C@H](CO)NC(=O)CNC1=O (Ac-CGSLF; thioester 1-C) | – | 189 nM | 1160 nM | –
22 | CCCCCCCc1cc(O)c2ccccc2[n+]1[O-] | – | 1300 nM | – | –
23 | CCOC(=O)c1c(C)oc2cc(-c3cc(Br)c(O)c(Br)c3)ccc12 | – | 780 nM | – | –
24 | CC[C@H](C)[C@@H]1NC(=O)[C@H](Cc2ccccc2)NC(=O)[C@H](C)NC(=O)[C@@H](NC(=O)[C@@H](NC(=O)[C@H](CO)NC(=O)CCCOc2ccc(Cc3ccccc3)cc2)[C@@H](C)O)CSC(=O)[C@H](CCSC)NC1=O (X1-STCAFIM; thioester 3-C) | – | 295 nM | 19 nM | –
25 | CCCCc1oc2ccccc2c1C(=O)c1ccc(O)cc1 | – | 540 nM | – | –
26 | CC[C@H](C)[C@@H]1NC(=O)[C@H](Cc2ccccc2)NC(=O)[C@H](C)NC(=O)[C@@H](NC(=O)[C@@H](NC(=O)[C@H](CO)NC(=O)CCCOc2ccc(C(=O)c3ccccc3)cc2)[C@@H](C)O)CSC(=O)[C@H](CCSC)NC1=O (X2-STCAFIM; thioester 3-C) | – | 303 nM | 18 nM | –
27 | CC(=O)N[C@H]1CSC(=O)[C@H](Cc2ccccc2)NC(=O)[C@H](CC(C)C)NC(=O)[C@H](CO)NC(=O)[C@H](CO)NC1=O (Ac-CSSLF; thioester 1-C) | 4 nM | 260 nM | 230 nM | IC50 [3]: 150 nM
28 | CC(=O)N[C@H]1CSC(=O)[C@H](Cc2ccccc2)NC(=O)[C@H](CC(C)C)NC(=O)CNC(=O)[C@H](CO)NC1=O (Ac-CSGLF; thioester 1-C) | – | 40 nM | 194 nM | –
29 | CC(=O)N[C@H]1CSC(=O)[C@H](Cc2ccccc2)NC(=O)[C@H](CC(C)C)NC(=O)CCCCNC1=O (Ac-C[Ava]LF; thioester 1-C) | – | 1140 nM | 50700 nM | –
30 | CC1CCN(C(C(=O)Nc2ccc3c(c2)OCO3)c2ccccc2)CC1 (stereo not given) | 980 nM | – | – | –
31 | CCc1oc2ccccc2c1C(=O)c1cc(Br)c(O)c(Br)c1 [BENZBROMARONE] | – | 130 nM | – | –
32 | CC[C@H](C)[C@@H]1NC(=O)[C@H](Cc2ccccc2)NC(=O)[C@H](CC(=O)O)NC(=O)[C@@H](NC(C)=O)CSC(=O)[C@H](CCSC)NC1=O (Ac-CDFIM; thioester 1-C) | 240 nM | – | 47 nM | EC50 [8]: 5800 nM
33 | CC[C@H](C)[C@@H]1NC(=O)[C@H](Cc2ccccc2)NC(=O)[C@H](C)NC(=O)[C@@H](NC(C)=O)CSC(=O)[C@H](CCSC)NC1=O (Ac-CAFIM; thioester 1-C) | 0.1 nM | 5 nM | 5 nM | IC50 [3]: 5 nM
